Values quoted from earlier work in patent US6797829B1, “Synthesis of a novel paramagnetic amino derivative (epm-5) for labelling chemical and biological macromolecules” (Conselho Nacional de Desenvolvimento Cientifico e …, priority 1999, dated 2004).
Read-outs that look alike come from different tables or passages of the source.

In the case of `CC1(C)CC(N)(C(=O)O)CC(C)(C)N1[O]` [Toac, 2,2,6,6tetramethylpiperidine-1-oxyl-4-amine-4-carboxylic acid], the “pKa of the amine group” value (in free state) is listed as 8 and the “pKa of the amine group” value (when bound to the N-terminal portion of a peptide chain) is listed as “about 5.5”.
